# From US20020137929A1, “1 - (3-heterocyclylphenyl) isothiourea, -isourea, -guanidine and -amidine herbicidal agents” (Intellectual Property Department, BASF Aktiengesellschaft, priority 1998, published 2002)
# Tests used:
# ABUTH (Velvetleaf) = assay: Postemergence herbicidal evaluation; format: in vivo, Abutilon theophrasti; conditions: postemergence
# In short: (§1)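 Herbicidal effect was judged by eye on a 0–9 scale covering stand, vigor, deformity, size and chlorosis, compared with controls, four to five weeks after seedlings about two weeks old were sprayed (40 psi, ~0.0156–0.500 kg/ha).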
# GALAP (Galium) = assay: Postemergence herbicidal evaluation; format: in vivo, Galium aparine; conditions: postemergence
# In short: as §1
# ECHCG (Barnyardgrass) = assay: Postemergence herbicidal evaluation; format: in vivo, Echinochloa crus-galli; conditions: postemergence
# In short: as §1
# SETVI (Foxtail, Green) = assay: Postemergence herbicidal evaluation; format: in vivo, Setaria viridis; conditions: postemergence
# In short: as §1
# ORYSAT (Rice, Tebonnet) = assay: Postemergence herbicidal evaluation; format: in vivo, Oryza sativa, (L.) Tebonnet; conditions: postemergence
# In short: as §1
# [1] = test system: IPOHE (Morningglory, Ivyleaf); assay: Preemergence herbicidal evaluation; format: in vivo, Ipomoea hederacea; conditions: rated 4-5 weeks after treatment
# In short: (§2)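 Seeds were planted in potting soil in cups, then sprayed preemergence with the test compound in aqueous acetone at about 0.0156 to 0.500 kg per hectare. Cups were kept under greenhouse conditions and visually rated 4–5 weeks after treatment on a 0–9 scale against an untreated control.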
# [2] = test system: TRZAWR (Wheat, Winter, cv Riband); assay: Preemergence herbicidal evaluation; format: in vivo, Triticum aestivum; conditions: rated 4-5 weeks after treatment
# In short: as §2
# ZEAMX (Corn, Field) = assay: Preemergence herbicidal evaluation; format: in vivo, Zea mays; conditions: rated 4-5 weeks after treatment
# In short: as §2
# [3] = test system: ECHORC (Watergrass (Calif.)); assay: Preemergence weed control under flooded paddy conditions; format: in vivo, Echinochloa oryzoides; conditions: rated 3-4 weeks after treatment
# In short: (§3)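 Seeds or propagules sown in top 0.5 cm of silt loam soil, flooded 1.5 to 3 cm above surface throughout. Compound in 50/50 v/v aqueous/acetone pipetted into flood water at about 0.0313 to 0.500 kg/ha. Visual 0-9 rating versus control after three to four weeks in greenhouse.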
# CYPIR (Rice Flatsedge) [4] = assay: as above; format: in vivo, Cyperus iria; conditions: rated 3-4 weeks after treatment
# In short: as §3
# MOOVA (Monochoria) = assay: as above; format: in vivo, Monochoria vaginalis; conditions: rated 3-4 weeks after treatment
# In short: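 Flooded-pot preemergence screen with silt loam and seeds in the upper 0.5 cm. Dose about 0.0313 to 0.500 kg/ha, delivered into flood water; visual 0-9 score after 3 to 4 weeks.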
# CYPIR (Rice Flatsedge) [5] = assay: Postemergence weed control under flooded paddy conditions; format: in vivo, Cyperus iria; conditions: postemergence weeds, 3-4 weeks after treatment
# In short: (§4)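 Weeds 3 to 5 cm tall and rice seedlings at the 1.5 to 2.5 leaf stage were flooded, with water held 1.5 to 3 cm above the soil. Compounds in 50/50 v/v aqueous/acetone went into the flood water at about 0.0313 to 0.500 kg/ha. Visual 0-9 ratings versus control were made 3 to 4 weeks later.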
# [6] = test system: SAGPY (Arrowhead (Pygmaea)); assay: as above; format: in vivo, Sagittaria pygmaea; conditions: postemergence weeds, 3-4 weeks after treatment
# In short: as §4
structure (smiles),measurement,setting,value
"CCOC(=O)CN1C(=O)CN(C)C1=Nc1cc(-n2c(=O)cc(C(F)(F)F)n(C)c2=O)c(F)cc1Cl [Compound 25, Ethyl 2-{{2-chloro-5-[3,6-dihydro-3-methyl-2,6-dioxo-4-(trifluoromethyl)-1(2H)-pyrimidinyl]-4-fluorophenyl}imino}-3-methyl-5-oxo-1-imidazolidineacetate]",ABUTH herbicidal rating,ABUTH (Velvetleaf); rate 0.0156 kg/ha,9.0
same,ABUTH herbicidal rating,ABUTH (Velvetleaf); rate 0.0313 kg/ha,9.0
same,ABUTH herbicidal rating,ABUTH (Velvetleaf); rate 0.0625 kg/ha,9.0
same,GALAP herbicidal rating,GALAP (Galium); rate 0.0156 kg/ha,2.0
same,GALAP herbicidal rating,GALAP (Galium); rate 0.0313 kg/ha,5.0
same,GALAP herbicidal rating,GALAP (Galium); rate 0.0625 kg/ha,7.0
same,ECHCG herbicidal rating,ECHCG (Barnyardgrass); rate 0.0156 kg/ha,0.0
same,ECHCG herbicidal rating,ECHCG (Barnyardgrass); rate 0.0313 kg/ha,0.0
same,ECHCG herbicidal rating,ECHCG (Barnyardgrass); rate 0.0625 kg/ha,0.0
same,SETVI herbicidal rating,"SETVI (Foxtail, Green); rate 0.0156 kg/ha",0.0
same,SETVI herbicidal rating,"SETVI (Foxtail, Green); rate 0.0313 kg/ha",0.0
same,SETVI herbicidal rating,"SETVI (Foxtail, Green); rate 0.0625 kg/ha",0.0
same,ORYSAT herbicidal rating,"ORYSAT (Rice, Tebonnet); rate 0.0156 kg/ha",0.5
same,ORYSAT herbicidal rating,"ORYSAT (Rice, Tebonnet); rate 0.0313 kg/ha",2.0
same,ORYSAT herbicidal rating,"ORYSAT (Rice, Tebonnet); rate 0.0625 kg/ha",2.0
same,Preemergence herbicidal rating IPOHE,[1]; rate 0.0156 kg/ha,0.0
same,Preemergence herbicidal rating IPOHE,[1]; rate 0.0313 kg/ha,0.0
same,IPOHE preemergence herbicidal rating,[1]; rate 0.0625 kg/ha,0.0
same,IPOHE preemergence herbicidal rating,[1]; rate 0.1250 kg/ha,2.0
same,IPOHE preemergence herbicidal rating,[1]; rate 0.2500 kg/ha,5.0
same,Preemergence herbicidal rating TRZAWR,[2]; rate 0.0156 kg/ha,0.0
same,Preemergence herbicidal rating TRZAWR,[2]; rate 0.0313 kg/ha,1.0
same,TRZAWR preemergence herbicidal rating,[2]; rate 0.0625 kg/ha,2.0
same,TRZAWR preemergence herbicidal rating,[2]; rate 0.1250 kg/ha,3.0
same,TRZAWR preemergence herbicidal rating,[2]; rate 0.2500 kg/ha,6.0
same,Preemergence herbicidal rating ZEAMX,"ZEAMX (Corn, Field); rate 0.0156 kg/ha",0.0
same,Preemergence herbicidal rating ZEAMX,"ZEAMX (Corn, Field); rate 0.0313 kg/ha",0.0
same,ZEAMX preemergence herbicidal rating,"ZEAMX (Corn, Field); rate 0.0625 kg/ha",6.0
same,ZEAMX preemergence herbicidal rating,"ZEAMX (Corn, Field); rate 0.1250 kg/ha",8.0
same,ZEAMX preemergence herbicidal rating,"ZEAMX (Corn, Field); rate 0.2500 kg/ha",9.0
same,Herbicidal rating ECHORC,[3]; 0.0313 kg/ha,4.0
same,Herbicidal rating ECHORC,[3]; 0.0625 kg/ha,6.0
same,Herbicidal rating ECHORC,[3]; 0.1250 kg/ha,7.0
same,Herbicidal rating ECHORC,[3]; 0.2500 kg/ha,9.0
same,Herbicidal rating CYPIR,CYPIR (Rice Flatsedge) [4]; 0.0313 kg/ha,0.0
same,Herbicidal rating CYPIR,CYPIR (Rice Flatsedge) [4]; 0.0625 kg/ha,0.0
same,Herbicidal rating CYPIR,CYPIR (Rice Flatsedge) [4]; 0.1250 kg/ha,0.0
same,Herbicidal rating CYPIR,CYPIR (Rice Flatsedge) [4]; 0.2500 kg/ha,0.0
same,Herbicidal rating MOOVA,MOOVA (Monochoria); 0.0313 kg/ha,9.0
same,Herbicidal rating MOOVA,MOOVA (Monochoria); 0.0625 kg/ha,9.0
same,Herbicidal rating MOOVA,MOOVA (Monochoria); 0.1250 kg/ha,9.0
same,Herbicidal rating MOOVA,MOOVA (Monochoria); 0.2500 kg/ha,9.0
same,Herbicidal rating CYPIR,CYPIR (Rice Flatsedge) [5]; rate 0.0313 kg/ha,0.0
same,Herbicidal rating CYPIR,CYPIR (Rice Flatsedge) [5]; rate 0.0625 kg/ha,0.0
same,Herbicidal rating CYPIR,CYPIR (Rice Flatsedge) [5]; rate 0.1250 kg/ha,0.0
same,Herbicidal rating CYPIR,CYPIR (Rice Flatsedge) [5]; rate 0.2500 kg/ha,0.0
same,Herbicidal rating SAGPY,[6]; rate 0.0313 kg/ha,0.0
same,Herbicidal rating SAGPY,[6]; rate 0.0625 kg/ha,0.0
same,Herbicidal rating SAGPY,[6]; rate 0.1250 kg/ha,5.0
same,Herbicidal rating SAGPY,[6]; rate 0.2500 kg/ha,5.0
Cn1c(C(F)(F)F)cc(=O)n(-c2cc(N=C3SCC(=O)N3Cc3ccccc3)c(Cl)cc2F)c1=O [Compound 26],ABUTH herbicidal rating,ABUTH (Velvetleaf); rate 0.0156 kg/ha,9.0
same,ABUTH herbicidal rating,ABUTH (Velvetleaf); rate 0.0313 kg/ha,9.0
same,ABUTH herbicidal rating,ABUTH (Velvetleaf); rate 0.0625 kg/ha,9.0
same,GALAP herbicidal rating,GALAP (Galium); rate 0.0156 kg/ha,3.0
same,GALAP herbicidal rating,GALAP (Galium); rate 0.0313 kg/ha,5.0
same,GALAP herbicidal rating,GALAP (Galium); rate 0.0625 kg/ha,5.0
same,ECHCG herbicidal rating,ECHCG (Barnyardgrass); rate 0.0156 kg/ha,0.0
same,ECHCG herbicidal rating,ECHCG (Barnyardgrass); rate 0.0313 kg/ha,0.0
same,ECHCG herbicidal rating,ECHCG (Barnyardgrass); rate 0.0625 kg/ha,0.0
same,SETVI herbicidal rating,"SETVI (Foxtail, Green); rate 0.0156 kg/ha",0.0
same,SETVI herbicidal rating,"SETVI (Foxtail, Green); rate 0.0313 kg/ha",0.0
same,SETVI herbicidal rating,"SETVI (Foxtail, Green); rate 0.0625 kg/ha",0.0
same,ORYSAT herbicidal rating,"ORYSAT (Rice, Tebonnet); rate 0.0156 kg/ha",0.5
same,ORYSAT herbicidal rating,"ORYSAT (Rice, Tebonnet); rate 0.0313 kg/ha",1.0
same,ORYSAT herbicidal rating,"ORYSAT (Rice, Tebonnet); rate 0.0625 kg/ha",1.5
same,Preemergence herbicidal rating IPOHE,[1]; rate 0.0156 kg/ha,0.0
same,Preemergence herbicidal rating IPOHE,[1]; rate 0.0313 kg/ha,0.0
same,Preemergence herbicidal rating IPOHE,[1]; rate 0.0625 kg/ha,0.0
same,Preemergence herbicidal rating IPOHE,[1]; rate 0.1250 kg/ha,2.0
same,Preemergence herbicidal rating IPOHE,[1]; rate 0.2500 kg/ha,3.0
same,Preemergence herbicidal rating TRZAWR,[2]; rate 0.0156 kg/ha,0.0
same,Preemergence herbicidal rating TRZAWR,[2]; rate 0.0313 kg/ha,0.0
same,Preemergence herbicidal rating TRZAWR,[2]; rate 0.0625 kg/ha,0.0
same,Preemergence herbicidal rating TRZAWR,[2]; rate 0.1250 kg/ha,0.0
same,Preemergence herbicidal rating TRZAWR,[2]; rate 0.2500 kg/ha,1.0
same,Preemergence herbicidal rating ZEAMX,"ZEAMX (Corn, Field); rate 0.0156 kg/ha",0.0
same,Preemergence herbicidal rating ZEAMX,"ZEAMX (Corn, Field); rate 0.0313 kg/ha",0.0
same,Preemergence herbicidal rating ZEAMX,"ZEAMX (Corn, Field); rate 0.0625 kg/ha",2.0
same,Preemergence herbicidal rating ZEAMX,"ZEAMX (Corn, Field); rate 0.1250 kg/ha",4.0
same,Preemergence herbicidal rating ZEAMX,"ZEAMX (Corn, Field); rate 0.2500 kg/ha",5.0
same,Herbicidal rating ECHORC,[3]; 0.0313 kg/ha,7.0
same,Herbicidal rating ECHORC,[3]; 0.0625 kg/ha,9.0
same,Herbicidal rating ECHORC,[3]; 0.1250 kg/ha,9.0
same,Herbicidal rating ECHORC,[3]; 0.2500 kg/ha,9.0
same,Herbicidal rating CYPIR,CYPIR (Rice Flatsedge) [4]; 0.0313 kg/ha,2.0
same,Herbicidal rating CYPIR,CYPIR (Rice Flatsedge) [4]; 0.0625 kg/ha,4.0
same,Herbicidal rating CYPIR,CYPIR (Rice Flatsedge) [4]; 0.1250 kg/ha,7.0
same,Herbicidal rating CYPIR,CYPIR (Rice Flatsedge) [4]; 0.2500 kg/ha,9.0
same,Herbicidal rating MOOVA,MOOVA (Monochoria); 0.0313 kg/ha,9.0
same,Herbicidal rating MOOVA,MOOVA (Monochoria); 0.0625 kg/ha,9.0
same,Herbicidal rating MOOVA,MOOVA (Monochoria); 0.1250 kg/ha,9.0
same,Herbicidal rating MOOVA,MOOVA (Monochoria); 0.2500 kg/ha,9.0
same,Herbicidal rating CYPIR,CYPIR (Rice Flatsedge) [5]; rate 0.0313 kg/ha,2.0
same,Herbicidal rating CYPIR,CYPIR (Rice Flatsedge) [5]; rate 0.0625 kg/ha,4.0
same,Herbicidal rating CYPIR,CYPIR (Rice Flatsedge) [5]; rate 0.1250 kg/ha,7.0
same,Herbicidal rating CYPIR,CYPIR (Rice Flatsedge) [5]; rate 0.2500 kg/ha,9.0
same,Herbicidal rating SAGPY,[6]; rate 0.0313 kg/ha,0.0
same,Herbicidal rating SAGPY,[6]; rate 0.0625 kg/ha,4.0
same,Herbicidal rating SAGPY,[6]; rate 0.1250 kg/ha,5.0
same,Herbicidal rating SAGPY,[6]; rate 0.2500 kg/ha,7.0
